Starred links: 1 amine or outer side, 2 acyl side, 3 side chain; linkers in the order of their positions; H or OH if unused. Positions of bridges follow the written chain, without caps; N, C: chain ends. Non-standard residues stand in square brackets, D forms with d. Residues, ends and D or L forms follow the SMILES beside them. *: point of attachment. Leu(3R-OH,Nα-propionyl) = CCC(=O)N[C@H](C(=O)*)[C@H](O)C(C)C; X1 = CC(C)[C@@H](O[*:3])[C@H](N[*:1])C(=O)[*:2]; X2 = CC(C)[C@H](O[*:3])[C@@H](N[*:1])C(=O)[*:2]; NMeaThr = CN[C@H](C(=O)O)[C@H](C)O; dPhLac = O=C(O)[C@H](O)Cc1ccccc1; NMeA = CN[C@@H](C)C(=O)O; NMeDha = C=C(NC)C(=O)O
Test system: 92.1 UM cells
Test: Gene Set Enrichment Analysis (GSEA) of RNA-Seq data
Assay type: cell-based, Human
[1] = gene set REACTOME_ADAPTIVE_IMMUNE_SYSTEM
[2] = gene set REACTOME_APC_C_CDC20_MEDIATED_DEGRADATION_OF_MITOTIC_PROTEINS
[3] = gene set REACTOME_APC_C_CDH1_MEDIATED_DEGRADATION_OF_CDC20_AND_OTHER_APC_C_CDH1_TARGETED_PROTEINS_IN_LATE_MITOSIS_EARLY_G1
[4] = gene set REACTOME_B[?]_INFECTION
[5] = gene set REACTOME_CHOLESTEROL_BIOSYNTHESIS
[6] = gene set REACTOME_DOUBLE_STRAND_BREAK_REPAIR
[7] = gene set REACTOME_E2F_MEDIATED_REGULATION_OF_DNA_REPLICATION
[8] = gene set REACTOME_EXTENSION_OF_TELOMERES
[9] = gene set REACTOME_FACTORS_INVOLVED_IN_MEGAKARYOCYTE_DEVELOPMENT_AND_PLATELET_PRODUCTION
[10] = gene set REACTOME_G0_AND_EARLY_G1
[11] = gene set REACTOME_HOST_INTERACTIONS_HIV_FACTORS
[12] = gene set REACTOME_LICAM_INTERACTIONS
[13] = gene set REACTOME_METABOLISM_OF_NON_CODING_RNA
[14] = gene set REACTOME_PREFOLDIN_MEDIATED_TRANSFER_OF_SUBSTRATE_TO_CCT_TRIC
[15] = gene set REACTOME_TRANSPORT_OF_MATURE_MRNA_DERIVED_FROM_AN_INTRONLESS_TRANSCRIPT
[16] = gene set REACTOME_[?]_REMOVAL_FROM_CHROMATIN
[17] = gene set REACTOM_GLUCONE_TRANSPORT
[18] = gene set RMEIN_GLUCOCORTICOID_THERAPY_DN
[19] = gene set SAKAL_CHRONIC_HEPATITIS_VS_LIVER_CANCER_UP
[20] = gene set SASAKI_ADULT_T_CELL_LEUKEMIA
[21] = gene set SASSON_RESPONSE_TO_FORSKOLIN_UP
[22] = gene set SASSON_RESPONSE_TO_GONADOTRPHINS_UP
[23] = gene set SCHMIDT_FOR_TARGETS_IN_LIMB_BUD_UP
[24] = gene set SCIBETTA_KDMS8_TARGETS_DN
[25] = gene set SENESE_HDAC1_TARGETS_UP
[26] = gene set SENESE_HDAC2_TARGETS_UP
[27] = gene set SHEPARD_CRUSH_AND_BURN_MUTANT_DN
[28] = gene set SMIRNOV_RESPONSE_TO_IR_6HR_DN
[29] = gene set WAKASUGI_HAVE_ZNF143_BINDING_SITES
[30] = gene set WELSCH_BRCA1_TARGETS_DN
[31] = gene set WHITFIELD_CELL_CYCLE_5
[32] = gene set WHITFIELD_CELL_CYCLE_M_G2
[33] = gene set [?]_APOPTOSIS_BY_REOVIRUS_INFECTION_DN
[34] = gene set [?]_E2F3_ONCOGENIC_SIGNATURE
[35] = gene set [?]_ESTRADIOL_RESPONSE_6HR_UP
[36] = gene set [?]_HYPOXIA_NOT_VIA_[?]
[37] = gene set [?]_OVARIAN_CANCER_INVAVSIVE_VS_LMP_UP
[38] = gene set [?]_PSEUDOPODIA_HAPTOTAXIS_DN
[39] = gene set […]_NEUTROPHIL_AT_SKIN_WOUND_DN
[40] = gene set mARTORIATE_MDM4_TARGETS_FETAL_LIVER_DN

## C=C1C(=O)N[C@@H](C)C(=O)N(C)[C@@H](C)C(=O)N[C@H]([C@@H](OC(=O)[C@@H](NC(=O)CC)[C@H](O)C(C)C)C(C)C)C(=O)N(C)[C@@H]([C@H](C)OC)C(=O)O[C@H](C(C)C)[C@H](NC(C)=O)C(=O)O[C@H](Cc2ccccc2)C(=O)N1C [FR, [(1S)-1-[(3S,6R,9S,12S,18R,21S,22R)-21-acetamido-18-benzyl-3-[(1S)-1-methoxyethyl]-4,9,10,12,16-pentamethyl-15-methylidene-2,5,8,11,14,17,20-heptaoxo-22-propan-2-yl-1,19-dioxa-4,7,10,13,16-pentazacyclodocos-6-yl]-2-methylpropyl] (2S,3R)-3-hydroxy-4-methyl-2-(propanoylamino)pentanoate] (Ac-[X1][dPhLac][NMeDha]A[NMeA][X2](Leu(3R-OH,Nα-propionyl))[NMeaThr](Me); ester 1-C)
[1]
  ES: 0.3979
  NES: 2.13
[2]
  ES: 0.5518
  NES: 2.142
[3]
  ES: 0.56
  NES: 2.187
[4]
  ES: 0.4639
  NES: 2.188
[5]
  ES: 0.6781
  NES: 2.138
Gene set REACTOME_DNA_REPAIR
  ES: 0.4835
  NES: 2.1
[6]
  ES: 0.6821
  NES: 2.156
[7]
  ES: 0.5585
  NES: 2.256
[8]
  ES: 0.6128
  NES: 2.062
[9]
  ES: 0.4943
  NES: 2.346
[10]
  ES: 0.5589
  NES: 2.109
[11]
  ES: 0.4871
  NES: 2.139
[12]
  ES: 0.4901
  NES: 2.064
[13]
  ES: 0.5725
  NES: 2.142
Gene set REACTOME_NEP_NS2_INTERACTS_WITH_THE_CELLULAR_EXPORT_MACHINERY
  ES: 0.6472
[14]
  ES: 0.6276
  NES: 2.059
[15]
  ES: 0.6258
  NES: 2.187
[16]
  ES: 0.5346
  NES: 2.104
[17]
  ES: 0.6343
  NES: 2.211
Gene set REN_ALVEOLAR_RHABDOMYOSARCOMA_DN
  NES: 2.084
[18]
  ES: 0.429
  NES: 2.253
[19]
  ES: 0.4953
  NES: 2.051
[20]
  ES: 0.4693
  NES: 2.213
[21]
  ES: 0.4936
  NES: 2.087
[22]
  ES: 0.5309
  NES: 2.23
[23]
  ES: 0.6919
  NES: 2.232
[24]
  ES: 0.4986
  NES: 2.107
[25]
  ES: 0.4141
  NES: 2.222
[26]
  ES: 0.4933
  NES: 2.179
Gene set SHEPARD_BMYB_TARGETS
  ES: 0.5123
  NES: 2.125
[27]
  ES: 0.4366
  NES: 2.055
Gene set SHIPP_D[?]CL_VS_FOLLICULAR_LYMPHOMA_UP
  NES: 2.142
[28]
  ES: 0.4874
  NES: 2.135
Gene set SP1_Q4_01
  ES: 0.4346
  NES: 2.133
Gene set TBK1DF_DN
  ES: 0.434
  NES: 2.201
[29]
  ES: 0.5464
  NES: 2.135
[30]
  ES: 0.4808
  NES: 2.25
[31]
  ES: 0.4808
  NES: 2.252
[32]
  ES: 0.4742
  NES: 2.151
Gene set WINTER_HYPOXIA_UP
  ES: 0.5079
  NES: 2.091
Gene set [?]ENPORAIN_17513976.21_2
  ES: 0.5458
[33]
  ES: 0.4088
  NES: 2.137
[34]
  ES: 0.4474
  NES: 2.256
[35]
  ES: 0.4279
  NES: 2.138
[36]
  ES: 0.3777
  NES: 2.125
[37]
  ES: 0.4908
  NES: 2.191
[38]
  ES: 0.396
  NES: 2.222
Gene set [?]_[?]1
  ES: 0.4368
  NES: 2.127
Gene set [?]_[?]_Q6
  ES: 0.372
  NES: 2.07
[39]
  ES: 0.4325
  NES: 2.066
[40]
  ES: 0.4046
  NES: 2.198

From patent US20230130103A1, “TARGETED PHARMACOLOGICAL THERAPEUTICS IN UVEAL MELANOMA” (Washington University, priority 2017, published 2023)
